Reference: PubChem BioAssay AID248 (DTP/NCI, 2004)
“And” between values parts separate entries of the source, which are not always exact repeats. Equal values may be shown once. Toxic doses and inconclusive results are not listed. Rule as the data show it: active = T/C of 150% or more; inactive = T/C below 125%.

System: L1210 leukemia ip in BDF1 mice, survival T/C
Experiment: NCI In Vivo Anticancer Drug Screen. Data for tumor model L1210 Leukemia (intraperitoneal) in B6D2F1 (BDF1) mice
Details: endpoint: mean survival time, higher = longer survival
How it was run: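 Tumor was transplanted into mice, which were then dosed with test compound or vehicle alone. Survival was recorded for each group, and the treated figure was expressed relative to the control figure.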

[1] = dose: 100.0 mg/kg/injection, schedule: Q01DX001 (ip), vehicle: carboxymethylcellulose (CMC)
[2] = dose: 200.0 mg/kg/injection, schedule: Q01DX001 (ip), vehicle: carboxymethylcellulose (CMC)
[3] = dose: 400.0 mg/kg/injection, schedule: Q01DX001 (ip), vehicle: carboxymethylcellulose (CMC)
[4] = dose: 100.0 mg/kg/injection, schedule: Q01DX001 (ip), vehicle: saline
[5] = dose: 200.0 mg/kg/injection, schedule: Q01DX001 (ip), vehicle: saline
[6] = dose: 25.0 mg/kg/injection, schedule: Q01DX009 (ip), vehicle: saline
[7] = dose: 50.0 mg/kg/injection, schedule: Q01DX009 (ip), vehicle: saline
[8] = dose: 100.0 mg/kg/injection, schedule: Q01DX009 (ip), vehicle: Klucel (hydroxypropylcellulose) (HPC)
[9] = dose: 200.0 mg/kg/injection, schedule: Q01DX009 (ip), vehicle: Klucel (hydroxypropylcellulose) (HPC)
[10] = dose: 100.0 mg/kg/injection, schedule: Q01DX009 (ip), vehicle: saline

Measured: T/C

O=C(Nc1ccccc1C(F)(F)F)Nc1cccc2c(O)cccc12
inactive: [1] 93 % of control and 100 % of control | dose: 100.0 mg/kg/injection, schedule: Q01DX009 (ip), vehicle: carboxymethylcellulose (CMC) 100 % of control and 91 % of control | dose: 100.0 mg/kg/injection, schedule: Q04DX002 (ip), vehicle: carboxymethylcellulose (CMC) 86 % of control | dose: 100.0 mg/kg/injection, schedule: Q04DX003 (ip), vehicle: carboxymethylcellulose (CMC) 88 % of control and 91 % of control | [2] 93 % of control and 89 % of control | dose: 200.0 mg/kg/injection, schedule: Q01DX009 (ip), vehicle: carboxymethylcellulose (CMC) 100 % of control and 103 % of control | dose: 200.0 mg/kg/injection, schedule: Q04DX002 (ip), vehicle: carboxymethylcellulose (CMC) 96 % of control and 89 % of control | dose: 200.0 mg/kg/injection, schedule: Q04DX003 (ip), vehicle: carboxymethylcellulose (CMC) 97 % of control and 88 % of control | [3] 94 % of control and 90 % of control | dose: 400.0 mg/kg/injection, schedule: Q01DX009 (ip), vehicle: carboxymethylcellulose (CMC) 96 % of control and 91 % of control | dose: 400.0 mg/kg/injection, schedule: Q04DX002 (ip), vehicle: carboxymethylcellulose (CMC) 89 % of control and 90 % of control | dose: 400.0 mg/kg/injection, schedule: Q04DX003 (ip), vehicle: carboxymethylcellulose (CMC) 97 % of control and 88 % of control

CCCCCCCCCCCCCCCCCC/C(CC)=N/Nc1ccc([N+](=O)[O-])cc1[N+](=O)[O-]
inactive: dose: 100.0 mg/kg/injection, schedule: Q01DX001 (ip), vehicle: Klucel (hydroxypropylcellulose) (HPC) 101 % of control | dose: 200.0 mg/kg/injection, schedule: Q01DX001 (ip), vehicle: Klucel (hydroxypropylcellulose) (HPC) 103 % of control | dose: 400.0 mg/kg/injection, schedule: Q01DX001 (ip), vehicle: Klucel (hydroxypropylcellulose) (HPC) 97 % of control

CCS(=O)(=O)c1ccc(NC(=O)OC(C)(c2ccccc2)C2CCCCC2)cc1 (stereo not given)
inactive: [1] 96 % of control | [2] 91 % of control | [3] 100 % of control

Cc1ccc2[nH]c(O)c(N=Nc3ccccc3[N+](=O)[O-])c2c1
inactive: [4] 90 % of control | [5] 93 % of control

COc1ccc(/C=C/[N+](=O)[O-])cc1O
inactive: [6] 110 % of control | dose: 25.0 mg/kg/injection, schedule: Q04DX003 (ip), vehicle: saline 98 % of control | [7] 102 % of control | dose: 50.0 mg/kg/injection, schedule: Q04DX003 (ip), vehicle: saline 98 % of control | dose: 100.0 mg/kg/injection, schedule: Q04DX003 (ip), vehicle: saline 100 % of control | dose: 200.0 mg/kg/injection, schedule: Q04DX003 (ip), vehicle: saline 86 % of control

O=C(COCC(=O)N/N=C/C=C/c1ccccc1)N/N=C/C=C/c1ccccc1
inactive: [8] 96 % of control | [9] 104 % of control | dose: 400.0 mg/kg/injection, schedule: Q01DX009 (ip), vehicle: Klucel (hydroxypropylcellulose) (HPC) 95 % of control

O=C1CCC2c3ccccc3C(=O)C2C1 (stereo not given)
inactive: dose: 50.0 mg/kg/injection, schedule: Q01DX009 (ip), vehicle: Klucel (hydroxypropylcellulose) (HPC) 100 % of control | [8] 100 % of control | [9] 98 % of control

O=C(O)/C=C/C(=O)Nc1cc(Cl)cc2c1-c1c(Cl)cc(Cl)cc1C2O (stereo not given)
inactive: dose: 100.0 mg/kg/injection, schedule: Q04DX003 (ip), vehicle: Klucel (hydroxypropylcellulose) (HPC) 98 % of control | dose: 200.0 mg/kg/injection, schedule: Q04DX003 (ip), vehicle: Klucel (hydroxypropylcellulose) (HPC) 92 % of control | dose: 400.0 mg/kg/injection, schedule: Q04DX003 (ip), vehicle: Klucel (hydroxypropylcellulose) (HPC) 108 % of control

COc1cc(Cl)ccc1NC(=O)OCc1ccco1
inactive: [10] 111 % of control | dose: 200.0 mg/kg/injection, schedule: Q01DX009 (ip), vehicle: saline 111 % of control | dose: 400.0 mg/kg/injection, schedule: Q01DX009 (ip), vehicle: saline 100 % of control

NC(=S)N/N=C/c1c(Cl)n(C(=O)c2ccccc2)c2ccccc12
inactive: dose: 50.0 mg/kg/injection, schedule: Q04DX002 (ip), vehicle: Klucel (hydroxypropylcellulose) (HPC) 98 % of control | dose: 100.0 mg/kg/injection, schedule: Q04DX002 (ip), vehicle: Klucel (hydroxypropylcellulose) (HPC) 87 % of control | dose: 200.0 mg/kg/injection, schedule: Q04DX002 (ip), vehicle: Klucel (hydroxypropylcellulose) (HPC) 87 % of control

ClC(c1ccccc1)C(Cl)c1ccccc1 (stereo not given)
inactive: dose: 50.0 mg/kg/injection, schedule: Q01DX001 (ip), vehicle: carboxymethylcellulose (CMC) 101 % of control | dose: 75.0 mg/kg/injection, schedule: Q04DX002 (ip), vehicle: Klucel (hydroxypropylcellulose) (HPC) 109 % of control | [1] 106 % of control | dose: 150.0 mg/kg/injection, schedule: Q04DX002 (ip), vehicle: Klucel (hydroxypropylcellulose) (HPC) 95 % of control | [2] 101 % of control | dose: 300.0 mg/kg/injection, schedule: Q04DX002 (ip), vehicle: Klucel (hydroxypropylcellulose) (HPC) 92 % of control | [3] 101 % of control

O=C(Nc1ccc2oc(=O)c3ccccc3c2c1)C(Cl)Cl
inactive: dose: 15.0 mg/kg/injection, schedule: Q01DX015 (ip), vehicle: carboxymethylcellulose (CMC) 88 % of control | dose: 30.0 mg/kg/injection, schedule: Q01DX015 (ip), vehicle: carboxymethylcellulose (CMC) 88 % of control | dose: 60.0 mg/kg/injection, schedule: Q01DX015 (ip), vehicle: carboxymethylcellulose (CMC) 94 % of control | [1] 97 % of control | dose: 120.0 mg/kg/injection, schedule: Q01DX015 (ip), vehicle: carboxymethylcellulose (CMC) 93 % of control and 96 % of control | [2] 109 % of control | dose: 240.0 mg/kg/injection, schedule: Q01DX015 (ip), vehicle: carboxymethylcellulose (CMC) 98 % of control | [3] 103 % of control | dose: 480.0 mg/kg/injection, schedule: Q01DX015 (ip), vehicle: carboxymethylcellulose (CMC) 98 % of control

[O-][N+](=C\c1ccccc1)/[N+]([O-])=C\c1ccccc1
inactive: [4] 98 % of control | [5] 95 % of control | dose: 400.0 mg/kg/injection, schedule: Q01DX001 (ip), vehicle: saline 98 % of control

O=C1OC(/C=C/c2ccccc2)=NC/1=C\c1ccc2c(c1)OCO2
inactive: dose: 100.0 mg/kg/injection, schedule: Q04DX002 (ip), vehicle: saline with Tween-80 92 % of control | dose: 200.0 mg/kg/injection, schedule: Q04DX002 (ip), vehicle: saline with Tween-80 89 % of control | dose: 400.0 mg/kg/injection, schedule: Q04DX002 (ip), vehicle: saline with Tween-80 92 % of control

Nc1ccc(-c2nc3nc(N)nc(N)c3nc2-c2ccc(N)cc2)cc1
inactive: dose: 30.0 mg/kg/injection, schedule: Q01DX Z (ip), vehicle: carboxymethylcellulose (CMC) 102 % of control | dose: 60.0 mg/kg/injection, schedule: Q01DX Z (ip), vehicle: carboxymethylcellulose (CMC) 95 % of control | dose: 120.0 mg/kg/injection, schedule: Q01DX Z (ip), vehicle: carboxymethylcellulose (CMC) 104 % of control | dose: 240.0 mg/kg/injection, schedule: Q01DX Z (ip), vehicle: carboxymethylcellulose (CMC) 101 % of control

CCCCCCC(O)C[N+](=O)[O-] (stereo not given)
inactive: dose: 12.5 mg/kg/injection, schedule: Q01DX009 (ip), vehicle: saline with Tween-80 100 % of control | dose: 25.0 mg/kg/injection, schedule: Q01DX009 (ip), vehicle: saline with Tween-80 98 % of control | dose: 50.0 mg/kg/injection, schedule: Q01DX009 (ip), vehicle: saline with Tween-80 93 % of control | dose: 100.0 mg/kg/injection, schedule: Q04DX003 (ip), vehicle: saline with Tween-80 107 % of control | dose: 200.0 mg/kg/injection, schedule: Q04DX003 (ip), vehicle: saline with Tween-80 86 % of control

CC(C)[As](=O)(O)O
inactive: [6] 97 % of control | [7] 90 % of control | [10] 104 % of control and 106 % of control
